In paper PMC5099578, “A structural and functional study on the 2-C-methyl-D-erythritol-4-phosphate cytidyltransferase (IspD) from Bacillus subtilis” (Scientific Reports, 2016):

Molecular target: T1, BsIspD (Bacillus subtilis, UniProt Q06755)
T1 construct: gene ispD; full length (699 bp gene, 232 residues built); pGEX-6P-1, expressed in E. coli, GST tag cut with PreScission protease; homodimer
Experiment: X-ray crystal structure of the complex, […] Å
Assay type: binding
Settings: co-crystallised with 10 mM CTP and 10 mM MgCl2; active site, one CTP and one Mg2+ in molecule D only

T1 sequence (Q06755 whole entry): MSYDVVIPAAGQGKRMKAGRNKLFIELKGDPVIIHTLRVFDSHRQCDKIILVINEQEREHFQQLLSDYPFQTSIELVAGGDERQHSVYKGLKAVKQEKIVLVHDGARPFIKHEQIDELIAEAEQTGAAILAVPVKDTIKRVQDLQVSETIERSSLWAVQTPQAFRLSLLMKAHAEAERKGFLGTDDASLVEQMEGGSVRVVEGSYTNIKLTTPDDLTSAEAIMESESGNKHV

Compound: Nc1ccn([C@@H]2O[C@H](COP(=O)(O)OP(=O)(O)OP(=O)(O)O)[C@@H](O)[C@H]2O)c(=O)n1 [CTP]
- X-ray crystal structure of the complex, 1.90 Å: One CTP molecule and one magnesium ion were observed binding to the molecule D
